{"source": "patent US8283361B2", "about": "(AstraZeneca AB, priority 2008, dated 2012)", "note": "Structures can show the parent of a compound that is named as a salt."}
{"biological_target": "S. aureus GyrB ATPase (Staphylococcus aureus, UniProt P0A0K8)", "sequence (P0A0K8 whole entry)": "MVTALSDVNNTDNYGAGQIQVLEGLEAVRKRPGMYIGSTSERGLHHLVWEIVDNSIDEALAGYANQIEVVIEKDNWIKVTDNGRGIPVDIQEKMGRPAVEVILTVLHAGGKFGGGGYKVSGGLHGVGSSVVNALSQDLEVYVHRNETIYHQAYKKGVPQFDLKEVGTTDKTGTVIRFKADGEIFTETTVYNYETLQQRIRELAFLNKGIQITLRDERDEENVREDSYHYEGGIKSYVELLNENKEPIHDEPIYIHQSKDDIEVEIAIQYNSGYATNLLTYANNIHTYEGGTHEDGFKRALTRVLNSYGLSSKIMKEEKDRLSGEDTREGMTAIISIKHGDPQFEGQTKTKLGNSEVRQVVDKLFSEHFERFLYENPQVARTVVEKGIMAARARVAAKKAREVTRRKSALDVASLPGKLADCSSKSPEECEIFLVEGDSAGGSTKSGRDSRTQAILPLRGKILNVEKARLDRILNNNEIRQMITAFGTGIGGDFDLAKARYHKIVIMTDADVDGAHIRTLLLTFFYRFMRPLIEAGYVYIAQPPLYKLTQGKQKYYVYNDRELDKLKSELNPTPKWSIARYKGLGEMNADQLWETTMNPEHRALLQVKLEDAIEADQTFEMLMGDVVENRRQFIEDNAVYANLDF", "sequence (P0AES4 whole entry, further chain)": "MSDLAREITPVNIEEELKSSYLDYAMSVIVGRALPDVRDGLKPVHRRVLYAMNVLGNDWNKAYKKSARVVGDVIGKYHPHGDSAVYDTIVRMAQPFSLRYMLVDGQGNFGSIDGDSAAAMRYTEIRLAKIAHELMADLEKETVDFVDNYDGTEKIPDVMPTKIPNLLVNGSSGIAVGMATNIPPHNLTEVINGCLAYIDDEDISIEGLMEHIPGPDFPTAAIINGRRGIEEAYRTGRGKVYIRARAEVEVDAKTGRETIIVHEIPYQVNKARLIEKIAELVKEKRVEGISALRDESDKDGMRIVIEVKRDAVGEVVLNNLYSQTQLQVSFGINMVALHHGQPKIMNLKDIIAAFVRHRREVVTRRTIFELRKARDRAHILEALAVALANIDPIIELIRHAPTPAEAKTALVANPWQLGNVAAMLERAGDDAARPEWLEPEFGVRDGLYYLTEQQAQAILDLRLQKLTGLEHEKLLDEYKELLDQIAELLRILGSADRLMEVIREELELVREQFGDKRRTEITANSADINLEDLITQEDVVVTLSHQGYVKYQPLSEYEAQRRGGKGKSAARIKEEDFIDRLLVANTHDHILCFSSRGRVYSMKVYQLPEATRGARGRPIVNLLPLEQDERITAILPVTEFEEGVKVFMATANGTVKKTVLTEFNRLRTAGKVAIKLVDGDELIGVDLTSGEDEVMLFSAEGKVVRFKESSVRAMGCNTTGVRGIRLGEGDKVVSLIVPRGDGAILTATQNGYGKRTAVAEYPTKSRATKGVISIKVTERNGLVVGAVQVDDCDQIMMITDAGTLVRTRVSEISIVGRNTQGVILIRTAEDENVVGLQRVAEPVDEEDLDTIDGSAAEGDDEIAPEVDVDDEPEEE", "assay": "biochemical", "conditions": "compound at 1 μM; one value per test if tested more than once; 1 µM", "protocol": "(§1) S. aureus GyrB ATPase Inhibition Activity: Compounds may be tested for inhibition of S. aureus GyrB ATPase activity using an ammonium molybdate/malachite green-based phosphate detection assay (Lanzetta, P. A., L. J. Alvarez, P. S. Reinach, and O. A. Candia, 1979, 100: 95-97). Assays can be performed in multiwell plates in 30 μl reactions containing: 50 mM Hepes buffer pH 7.5, 75 mM ammonium acetate, 8.0 mM magnesium chloride, 0.5 mM ethylenediaminetetraacetic acid, 5% glycerol, 1.0 mM 1,4-Dithio-DL-threitol, 200 nM bovine serum albumin, 1.0 μg/m1 sheared salmon sperm DNA, 250 pM E. coli GyrA, 250 pM S. aureus GyrB, 250 μM ATP, and compound in dimethylsulfoxide. Reactions can be quenched with 30 μl of ammonium molybdate/malachite green detection reagent containing 1.2 mM malachite green hydrochloride, 8.5 mM ammonium molybdate tetrahydrate, and 1 M hydrochloric acid. […] An IC50 measurement of compound potency for each compound can be determined from reactions performed in the presence of 10 different compound concentrations.", "units": {"% Inhibition of S. aureus GyrB ATPase": "%"}}
{"compound": "CCNC(=O)Nc1cc(-c2nc(C(F)(F)F)cs2)c(-c2ccc3c(c2)c(=O)c(C(=O)O)cn3[C@H](CO)CC(C)C)cn1", "note": "[Example 95, (S)-6-(6-(3-ethylureido)-4-(4-(trifluoromethyl)thiazol-2-yl)pyridin-3-yl)-1-(1-hydroxy-4-methylpentan-2-yl)-4-oxo-1,4-dihydroquinoline-3-carboxylic acid]", "% Inhibition of S. aureus GyrB ATPase": 109}
{"biological_target": "S. aureus GyrB ATPase (Staphylococcus aureus, UniProt P0A0K8)", "assay": "biochemical", "conditions": "compound at 1 μM; one value per test if tested more than once; read-out: % Inhibition of S. aureus GyrB ATPase", "protocol": "as §1", "units": {"inhibition at 1 µM": "%"}}
{"compound": "CCNC(=O)Nc1cc(-c2nc(C(F)(F)F)cs2)c(-c2ccc3c(c2)c(=O)c(C(=O)O)cn3[C@H](CO)C(C)(C)C)cn1", "note": "[Example 81, 6-{6-[(ethylcarbamoyl)amino]-4-[4-(trifluoromethyl)-1,3-thiazol-2-yl]pyridin-3-yl}-1-[(1S)-1-(hydroxymethyl)-2,2-dimethylpropyl]-4-oxo-1,4-dihydroquinoline-3-carboxylic acid]", "inhibition at 1 µM": 96}
{"compound": "CCNC(=O)Nc1cc(-c2nc(C(F)(F)F)cs2)c(-c2ccc3c(c2)c(=O)c(C(=O)O)cn3[C@H](CO)C(C)C)cn1", "note": "[Example 82, 6-{6-[(ethylcarbamoyl)amino]-4-[4-(trifluoromethyl)-1,3-thiazol-2-yl]pyridin-3-yl}-1-[(1S)-1-(hydroxymethyl)-2-methylpropyl]-4-oxo-1,4-dihydroquinoline-3-carboxylic acid]", "inhibition at 1 µM": 111}
{"compound": "CCNC(=O)Nc1cc(-c2nc(C(F)(F)F)cs2)c(-c2ccc3c(c2)c(=O)c(C(=O)O)cn3[C@H](CO)CC(C)C)cn1", "note": "[Example 83, (S)-6-(6-(3-ethylureido)-4-(4-(trifluoromethyl)thiazol-2-yl)pyridin-3-yl)-1-(1-hydroxy-4-methylpentan-2-yl)-4-oxo-1,4-dihydroquinoline-3-carboxylic acid]", "inhibition at 1 µM": 96}
{"compound": "CCCNC(=O)Nc1cc(-c2nc(C(F)(F)F)cs2)c(-c2ccc3c(c2)c(=O)c(C(=O)O)cn3[C@H](CO)C(C)(C)C)cn1", "note": "[Example 84, (S)-1-(1-hydroxy-3,3-dimethylbutan-2-yl)-4-oxo-6-(6-(3-propylureido)-4-(4-(trifluoromethyl)thiazol-2-yl)pyridin-3-yl)-1,4-dihydroquinoline-3-carboxylic acid]", "inhibition at 1 µM": 95}
{"compound": "CCNC(=O)Nc1cc(-c2nc(C(F)(F)F)cs2)c(-c2ccc3c(c2)c(=O)c(C(=O)O)cn3[C@@H](CO)C(C)C)cn1", "note": "[Example 85, (R)-6-(6-(3-ethylureido)-4-(4-(trifluoromethyl)thiazol-2-yl)pyridin-3-yl)-1-(1-hydroxy-3-methylbutan-2-yl)-4-oxo-1,4-dihydroquinoline-3-carboxylic acid]", "inhibition at 1 µM": 96}
{"compound": "CCNC(=O)Nc1cc(-c2nc(C(F)(F)F)cs2)c(-c2ccc3c(c2)c(=O)c(C(=O)O)cn3[C@@H](CC)CO)cn1", "note": "[Example 86, (S)-6-(6-(3-ethylureido)-4-(4-(trifluoromethyl)thiazol-2-yl)pyridin-3-yl)-1-(1-hydroxybutan-2-yl)-4-oxo-1,4-dihydroquinoline-3-carboxylic acid]", "inhibition at 1 µM": 98}
{"compound": "CCCNC(=O)Nc1cc(-c2nc(C(F)(F)F)cs2)c(-c2ccc3c(c2)c(=O)c(C(=O)O)cn3[C@H](CO)CC(C)C)cn1", "note": "[Example 87, (S)-1-(1-hydroxy-4-methylpentan-2-yl)-4-oxo-6-(6-(3-propylureido)-4-(4-(trifluoromethyl)thiazol-2-yl)pyridin-3-yl)-1,4-dihydroquinoline-3-carboxylic acid]", "inhibition at 1 µM": 96}
{"compound": "CCNC(=O)Nc1cc(-c2nc(C(F)(F)F)cs2)c(-c2ccc3c(c2)c(=O)c(C(=O)O)cn3C[C@@H]2CCCO2)cn1", "note": "[Example 88, (S)-6-(6-(3-ethylureido)-4-(4-(trifluoromethyl)thiazol-2-yl)pyridin-3-yl)-4-oxo-1-((tetrahydrofuran-2-yl)methyl)-1,4-dihydroquinoline-3-carboxylic acid]", "inhibition at 1 µM": 90}
{"compound": "CCNC(=O)Nc1cc(-c2nc(C(F)(F)F)cs2)c(-c2ccc3c(c2)c(=O)c(C(=O)O)cn3CCC2CCN(C)CC2)cn1", "note": "[Example 89, 6-(6-(3-ethylureido)-4-(4-(trifluoromethyl)thiazol-2-yl)pyridin-3-yl)-1-(2-(1-methylpiperidin-4-yl)ethyl)-4-oxo-1,4-dihydroquinoline-3-carboxylic acid]", "inhibition at 1 µM": 91}
{"compound": "CCNC(=O)Nc1cc(-c2nc(C(F)(F)F)cs2)c(-c2ccc3c(c2)c(=O)c(C(=O)O)cn3CC2CCOCC2)cn1", "note": "[Example 90, 6-(6-(3-ethylureido)-4-(4-(trifluoromethyl)thiazol-2-yl)pyridin-3-yl)-4-oxo-1-((tetrahydro-2H-pyran-4-yl)methyl)-1,4-dihydroquinoline-3-carboxylic acid]", "inhibition at 1 µM": 97}
{"compound": "CCNC(=O)Nc1cc(-c2nc(C(F)(F)F)cs2)c(-c2ccc3c(c2)c(=O)c(C(=O)O)cn3C(CC)CO)cn1", "note": "(centres unmarked) [Example 93, 6-(6-(3-ethylureido)-4-(4-(trifluoromethyl)thiazol-2-yl)pyridin-3-yl)-1-(1-hydroxybutan-2-yl)-4-oxo-1,4-dihydroquinoline-3-carboxylic acid]", "inhibition at 1 µM": 95}
{"compound": "CCNC(=O)Nc1cc(-c2nc(C(F)(F)F)cs2)c(-c2ccc3c(c2)c(=O)c(C(=O)O)cn3CC2CCN(C)CC2)cn1", "note": "[Example 94, 6-(6-(3-ethylureido)-4-(4-(trifluoromethyl)thiazol-2-yl)pyridin-3-yl)-1-((1-methylpiperidin-4-yl)methyl)-4-oxo-1,4-dihydroquinoline-3-carboxylic acid]", "inhibition at 1 µM": 95}
{"compound": "CCNC(=O)Nc1cc(-c2nc(C(F)(F)F)cs2)c(-c2ccc3c(c2)c(=O)c(C(=O)NC)cn3[C@H](CO)CC(C)C)cn1", "note": "[Example 96, (S)-6-(6-(3-ethylureido)-4-(4-(trifluoromethyl)thiazol-2-yl)pyridin-3-yl)-1-(1-hydroxy-4-methylpentan-2-yl)-N-methyl-4-oxo-1,4-dihydroquinoline-3-carboxamide]", "inhibition at 1 µM": 95}
{"compound": "CCNC(=O)Nc1cc(-c2nc(C(F)(F)F)cs2)c(-c2ccc3c(c2)c(=O)c(C(=O)O)cn3C2(CO)CCOCC2)cn1", "note": "[Example 122, 6-(6-(3-ethylureido)-4-(4-(trifluoromethyl)thiazol-2-yl)pyridin-3-yl)-1-(4-(hydroxymethyl)tetrahydro-2H-pyran-4-yl)-4-oxo-1,4-dihydroquinoline-3-carboxylic acid]", "inhibition at 1 µM": 95}
{"compound": "CCNC(=O)Nc1cc(-c2nc(C(F)(F)F)cs2)c(-c2ccc3c(c2)c(=O)c(C(=O)O)cn3CC2CCCCN2)cn1", "note": "(centres unmarked) [Example 123, 6-(6-(3-ethylureido)-4-(4-(trifluoromethyl)thiazol-2-yl)pyridin-3-yl)-4-oxo-1-(piperidin-2-ylmethyl)-1,4-dihydroquinoline-3-carboxylic acid]", "inhibition at 1 µM": 95}
{"compound": "CCNC(=O)Nc1cc(-c2nc(C(F)(F)F)cs2)c(-c2ccc3c(c2)c(=O)c(C(=O)O)cn3Cc2ccncc2)cn1", "note": "[Example 124, 6-(6-(3-ethylureido)-4-(4-(trifluoromethyl)thiazol-2-yl)pyridin-3-yl)-4-oxo-1-(pyridin-4-ylmethyl)-1,4-dihydroquinoline-3-carboxylic acid]", "inhibition at 1 µM": 87}
{"compound": "CCNC(=O)Nc1cc(-c2nc(C(F)(F)F)cs2)c(-c2ccc3c(c2)c(=O)c(C(=O)O)cn3Cc2cn(C)cn2)cn1", "note": "[Example 125, 6-(6-(3-ethylureido)-4-(4-(trifluoromethyl)thiazol-2-yl)pyridin-3-yl)-1-((1-methyl-1H-imidazol-4-yl)methyl)-4-oxo-1,4-dihydroquinoline-3-carboxylic acid]", "inhibition at 1 µM": 93}
{"compound": "CCNC(=O)Nc1cc(-c2nc(C(F)(F)F)cs2)c(-c2ccc3c(c2)c(=O)c(C(=O)O)cn3C(C)CN(C)C)cn1", "note": "(centres unmarked) [Example 126, 1-(1-(dimethylamino)propan-2-yl)-6-(6-(3-ethylureido)-4-(4-(trifluoromethyl)thiazol-2-yl)pyridin-3-yl)-4-oxo-1,4-dihydroquinoline-3-carboxylic acid]", "inhibition at 1 µM": 117}
{"compound": "CCNC(=O)Nc1cc(-c2nc(C(F)(F)F)cs2)c(-c2ccc3c(c2)c(=O)c(C(=O)O)cn3CC2CCCCN2C)cn1", "note": "(centres unmarked) [Example 127, 6-(6-(3-ethylureido)-4-(4-(trifluoromethyl)thiazol-2-yl)pyridin-3-yl)-1-((1-methylpiperidin-2-yl)methyl)-4-oxo-1,4-dihydroquinoline-3-carboxylic acid, formic acid salt]", "inhibition at 1 µM": 117}
{"compound": "CCNC(=O)Nc1cc(-c2nc(C(F)(F)F)cs2)c(-c2ccc3c(c2)c(=O)c(C(=O)NC2CCOCC2)cn3C(COC)COC)cn1", "note": "[Example 128, 1-(1,3-dimethoxypropan-2-yl)-6-(6-(3-ethylureido)-4-(4-(trifluoromethyl)thiazol-2-yl)pyridin-3-yl)-4-oxo-N-(tetrahydro-2H-pyran-4-yl)-1,4-dihydroquinoline-3-carboxamide]", "inhibition at 1 µM": 92}
{"compound": "CCNC(=O)Nc1cc(-c2nc(C(F)(F)F)cs2)c(-c2ccc3c(c2)c(=O)c(C(=O)NC)cn3C(COC)COC)cn1", "note": "[Example 129, 1-(1,3-dimethoxypropan-2-yl)-6-(6-(3-ethylureido)-4-(4-(trifluoromethyl)thiazol-2-yl)pyridin-3-yl)-N-methyl-4-oxo-1,4-dihydroquinoline-3-carboxamide]", "inhibition at 1 µM": 93}
{"compound": "CCNC(=O)Nc1cc(-c2nc(C(F)(F)F)cs2)c(-c2ccc3c(c2)c(=O)c(C(=O)NC)cn3[C@H](C(=O)O)C(C)C)cn1", "note": "[Example 130, (S)-2-(6-(6-(3-ethylureido)-4-(4-(trifluoromethyl)thiazol-2-yl)pyridin-3-yl)-3-(methylcarbamoyl)-4-oxoquinolin-1(4H)-yl)-3-methylbutanoic acid]", "inhibition at 1 µM": 101}
